# Experimental data: patent EP4635500A1, “THERAPEUTIC AGENT FOR BACTERIAL INFECTION” (Sumitomo Pharma Co., Ltd., priority 2022, dated 2024)
# Read-outs that look alike come from different tables or passages of the source.
# System: Enterobacterales
# Assay: MIC, broth microdilution, CDC/FDA Antibiotic Resistance Isolate Bank (Example 7, Tables 8, 11, 12)
# Format: cell-based
smiles,measurement,setting,value
"C[C@@H](O)[C@H]1C(=O)N2C(C(=O)O)=C(S[C@@H]3CN[C@H](C(=O)N(C)C)C3)[C@H](C)[C@H]12 [MEPM, meropenem]",MIC,"Escherichia coli, KUB No. 5774, AR Bank# 378, no carbapenemase genes, read-out: MIC",≤ 0.06 µg/mL
same,MIC,"Escherichia coli, KUB No. 5779, AR Bank# 433, no carbapenemase genes, read-out: MIC",≤ 0.06 µg/mL
same,MIC,"Escherichia coli, KUB No. 5780, AR Bank# 434, no carbapenemase genes, read-out: MIC",≤ 0.06 µg/mL
same,MIC,"Escherichia coli, KUB No. 5781, AR Bank# 435, NDM-1, read-out: MIC",32 µg/mL
same,MIC,"Escherichia coli, KUB No. 5782, AR Bank# 436, no carbapenemase genes, read-out: MIC",≤ 0.06 µg/mL
same,MIC,"Escherichia coli, KUB No. 5783, AR Bank# 437, no carbapenemase genes, read-out: MIC",≤ 0.06 µg/mL
same,MIC,"Escherichia coli, KUB No. 5794, AR Bank# 450, no carbapenemase genes, read-out: MIC",16 µg/mL
same,MIC,"Escherichia coli, KUB No. 5796, AR Bank# 452, NDM-5, read-out: MIC",2 µg/mL
same,MIC,"Klebsiella aerogenes, Enterobacter aerogenes, KUB No. 5559, AR Bank # 62, no carbapenemase gene, read-out: MIC",0.12 µg/mL
same,MIC,"Klebsiella aerogenes, Enterobacter aerogenes, KUB No. 5571, AR Bank # 74, OXA-48, read-out: MIC",0.5 µg/mL
same,MIC,"Klebsiella aerogenes, Enterobacter aerogenes, KUB No. 5658, AR Bank# 161, IMP-4, read-out: MIC",1 µg/mL
same,MIC,"Klebsiella aerogenes, Enterobacter aerogenes, KUB No. 5777, AR Bank# 431, no carbapenemase genes, read-out: MIC",≤ 0.06 µg/mL
same,MIC,Klebsiella ornithinolytica,0.25 µg/mL
same,MIC,"Klebsiella oxytoca, KUB No. 5568, AR Bank # 71, no carbapenemase gene, read-out: MIC",8 µg/mL
same,MIC,"Klebsiella oxytoca, KUB No. 5644, AR Bank# 147, KPC-3, read-out: MIC",0.25 µg/mL
same,MIC,"Klebsiella oxytoca, KUB No. 5771, AR Bank# 375, no carbapenemase genes, read-out: MIC",≤ 0.06 µg/mL
same,MIC,"Klebsiella oxytoca, KUB No. 5776, AR Bank# 380, no carbapenemase genes, read-out: MIC",2 µg/mL
same,MIC,"Klebsiella ozaenae, KUB No. 5548, AR Bank # 51, OXA-181, read-out: MIC",1 µg/mL
same,MIC,"Klebsiella ozaenae, KUB No. 5593, AR Bank # 96, KPC-3, read-out: MIC",32 µg/mL
same,MIC,"Klebsiella pnemnonice, KUB No. 5784, AR Bank# 438, KPC-3, read-out: MIC",> 32 µg/mL
same,MIC,"Klebsiella pneumoniae, KUB No. 5531, AR Bank # 34, IMP-4, read-out: MIC",0.25 µg/mL
same,MIC,"Klebsiella pneumoniae, KUB No. 5536, AR Bank # 39, OXA-181, read-out: MIC",1 µg/mL
same,MIC,"Klebsiella pneumoniae, KUB No. 5537, AR Bank # 40, VIM-27, read-out: MIC",> 32 µg/mL
same,MIC,"Klebsiella pneumoniae, KUB No. 5538, AR Bank # 41, NDM-1, read-out: MIC",8 µg/mL
same,MIC,"Klebsiella pneumoniae, KUB No. 5540, AR Bank # 43, no carbapenemase gene, read-out: MIC",0.5 µg/mL
same,MIC,"Klebsiella pneumoniae, KUB No. 5541, AR Bank # 44, no carbapenemase gene, read-out: MIC",2 µg/mL
same,MIC,"Klebsiella pneumoniae, KUB No. 5543, AR Bank # 46, VIM-27, read-out: MIC",32 µg/mL
same,MIC,"Klebsiella pneumoniae, KUB No. 5544, AR Bank # 47, no carbapenemase gene, read-out: MIC",4 µg/mL
same,MIC,"Klebsiella pneumoniae, KUB No. 5546, AR Bank # 49, NDM-1, read-out: MIC",32 µg/mL
same,MIC,"Klebsiella pneumoniae, KUB No. 5563, AR Bank # 66, OXA-232, read-out: MIC",8 µg/mL
same,MIC,"Klebsiella pneumoniae, KUB No. 5565, AR Bank # 68, OXA-232, NDM-1, read-out: MIC",> 32 µg/mL
same,MIC,"Klebsiella pneumoniae, KUB No. 5573, AR Bank # 76, VIM-1, read-out: MIC",2 µg/mL
same,MIC,"Klebsiella pneumoniae, KUB No. 5576, AR Bank # 79, no carbapenemase gene, read-out: MIC",4 µg/mL
same,MIC,"Klebsiella pneumoniae, KUB No. 5577, AR Bank # 80, IMP-4, read-out: MIC",4 µg/mL
same,MIC,"Klebsiella pneumoniae, KUB No. 5584, AR Bank # 87, no carbapenemase gene, read-out: MIC",≤ 0.06 µg/mL
same,MIC,"Klebsiella pneumoniae, KUB No. 5594, AR Bank # 97, KPC-3, read-out: MIC",32 µg/mL
same,MIC,"Klebsiella pneumoniae, KUB No. 5595, AR Bank # 98, KPC-2, read-out: MIC",8 µg/mL
same,MIC,"Klebsiella pneumoniae, KUB No. 5603, AR Bank # 106, NDM-1, read-out: MIC",> 32 µg/mL
same,MIC,"Klebsiella pneumoniae, KUB No. 5604, AR Bank # 107, no carbapenemase gene, read-out: MIC",16 µg/mL
same,MIC,"Klebsiella pneumoniae, KUB No. 5606, AR Bank # 109, no carbapenemase gene, read-out: MIC",8 µg/mL
same,MIC,"Klebsiella pneumoniae, KUB No. 5609, AR Bank # 112, KPC-3, read-out: MIC",4 µg/mL
same,MIC,"Klebsiella pneumoniae, KUB No. 5610, AR Bank # 113, KPC-3, read-out: MIC",> 32 µg/mL
same,MIC,"Klebsiella pneumoniae, KUB No. 5612, AR Bank # 115, KPC-3, read-out: MIC",8 µg/mL
same,MIC,"Klebsiella pneumoniae, KUB No. 5614, AR Bank # 117, KPC-3, read-out: MIC",16 µg/mL
same,MIC,"Klebsiella pneumoniae, KUB No. 5617, AR Bank # 120, KPC-2, read-out: MIC",16 µg/mL
same,MIC,"Klebsiella pneumoniae, KUB No. 5622, AR Bank # 125, KPC-3, read-out: MIC",16 µg/mL
same,MIC,"Klebsiella pneumoniae, KUB No. 5623, AR Bank # 126, KPC-2, read-out: MIC",4 µg/mL
same,MIC,"Klebsiella pneumoniae, KUB No. 5626, AR Bank # 129, KPC-3, read-out: MIC",4 µg/mL
same,MIC,"Klebsiella pneumoniae, KUB No. 5632, AR Bank# 135, VIM-1, read-out: MIC",0.5 µg/mL
same,MIC,"Klebsiella pneumoniae, KUB No. 5635, AR Bank# 138, NDM-7, read-out: MIC",> 32 µg/mL
same,MIC,"Klebsiella pneumoniae, KUB No. 5636, AR Bank# 139, NDM-1, read-out: MIC",0.12 µg/mL
same,MIC,"Klebsiella pneumoniae, KUB No. 5637, AR Bank# 140, OXA-181, read-out: MIC",1 µg/mL
same,MIC,"Klebsiella pneumoniae, KUB No. 5639, AR Bank# 142, OXA-181, read-out: MIC",1 µg/mL
same,MIC,"Klebsiella pneumoniae, KUB No. 5640, AR Bank# 143, NDM-L, read-out: MIC",> 32 µg/mL
same,MIC,"Klebsiella pneumoniae, KUB No. 5642, AR Bank# 145, NDM-1, read-out: MIC",8 µg/mL
same,MIC,"Klebsiella pneumoniae, KUB No. 5643, AR Bank# 146, NDM-1, read-out: MIC",8 µg/mL
same,MIC,"Klebsiella pneumoniae, KUB No. 5645, AR Bank# 148, NDM-1, read-out: MIC",8 µg/mL
same,MIC,"Klebsiella pneumoniae, KUB No. 5650, AR Bank# 153, OXA-232, NDM-1, read-out: MIC",> 32 µg/mL
same,MIC,"Klebsiella pneumoniae, KUB No. 5655, AR Bank# 158, NDM-1, read-out: MIC",8 µg/mL
same,MIC,"Klebsiella pneumoniae, KUB No. 5657, AR Bank# 160, OXA-48, read-out: MIC",8 µg/mL
same,MIC,"Klebsiella pneumoniae, KUB No. 5757, AR Bank# 361, KPC-2, read-out: MIC",8 µg/mL
same,MIC,"Klebsiella pneumoniae, KUB No. 5758, AR Bank# 362, KPC-2, read-out: MIC",8 µg/mL
same,MIC,"Klebsiella pneumoniae, KUB No. 5759, AR Bank# 363, KPC-2, read-out: MIC",4 µg/mL
same,MIC,"Klebsiella pneumoniae, KUB No. 5760, AR Bank# 364, no carbapenemase genes, read-out: MIC",1 µg/mL
same,MIC,"Klebsiella pneumoniae, KUB No. 5772, AR Bank# 376, no carbapenemase genes, read-out: MIC",0.12 µg/mL
same,MIC,"Klebsiella pneumoniae, KUB No. 5797, AR Bank# 453, KPC-3, read-out: MIC",> 32 µg/mL
same,MIC,"Klebsiella pneumoniae, KUB No. 5809, AR Bank# 504, OXA-48, read-out: MIC",4 µg/mL
same,MIC,"Klebsiella pneumoniae, KUB No. 5810, AR Bank# 505, NDM-1, read-out: MIC",16 µg/mL
same,MIC,"Klebsiella pneumoniae, KUB No. 5811, AR Bank# 506, NDM-1, read-out: MIC",16 µg/mL
same,MIC,"Klebsiella pneumoniae, KUB No. 5812, AR Bank# 507, OXA-232, NDM-1, read-out: MIC",> 32 µg/mL
same,MIC,"Klebsiella pneumoniae, KUB No. 5827, AR Bank# 522, KPC-2, read-out: MIC",8 µg/mL
same,MIC,"Klebsiella pneumoniae, KUB No. 5828, AR Bank# 523, KPC-2 (row continued in Table 8-7), read-out: MIC",16 µg/mL
same,MIC,"Klebsiella pneumoniae, KUB No. 5829, AR Bank# 524, KPC-3, read-out: MIC",16 µg/mL
same,MIC,"Klebsiella pneumoniae, KUB No. 5830, AR Bank# 525, KPC-11, read-out: MIC",8 µg/mL
same,MIC,"Klebsiella pneumonice, KUB No. 5649, AR Bank# 152, NDM-1, read-out: MIC",8 µg/mL
same,MIC,Kluyvera ascorbata,2 µg/mL
same,MIC,"Morganella morganii, KUB No. 5630, AR Bank# 133, KPC-2, read-out: MIC",1 µg/mL
same,MIC,"Morganella morganii, KUB No. 5824, AR Bank# 519, no carbapenemase genes, read-out: MIC",2 µg/mL
same,MIC,"Proteus mirabilis, KUB No. 5556, AR Bank # 59, no carbapenemase gene, read-out: MIC",0.12 µg/mL
same,MIC,"Proteus mirabilis, KUB No. 5652, AR Bank# 155, KPC-6, read-out: MIC",1 µg/mL
same,MIC,"Proteus mirabilis, KUB No. 5653, AR Bank# 156, KPC-2, read-out: MIC",0.12 µg/mL
same,MIC,"Proteus mirabilis, KUB No. 5656, AR Bank# 159, NDM-1, read-out: MIC",2 µg/mL
same,MIC,"Proteus mirabilis, KUB No. 5773, AR Bank# 377, KPC-3, read-out: MIC",1 µg/mL
same,MIC,"Proteus mirabilis, KUB No. 5775, AR Bank# 379, no carbapenemase genes, read-out: MIC",≤ 0.06 µg/mL
same,MIC,Providencia rettgeri,8 µg/mL
same,MIC,Salmonella enterica,16 µg/mL
same,MIC,"Serratia marcescens, KUB No. 5588, AR Bank # 91, SME-3, read-out: MIC",16 µg/mL
same,MIC,"Serratia marcescens, KUB No. 5596, AR Bank # 99, SME-3, read-out: MIC",16 µg/mL
same,MIC,"Serratia marcescens, KUB No. 5618, AR Bank # 121, SME-3, read-out: MIC",16 µg/mL
same,MIC,"Serratia marcescens, KUB No. 5619, AR Bank # 122, SME-3, read-out: MIC",32 µg/mL
same,MIC,"Serratia marcescens, KUB No. 5620, AR Bank # 123, SME-3, read-out: MIC",2 µg/mL
same,MIC,"Serratia marcescens, KUB No. 5621, AR Bank # 124, SME-3, read-out: MIC",32 µg/mL
same,MIC,"Serratia marcescens, KUB No. 5627, AR Bank # 130, SME-3, read-out: MIC",8 µg/mL
same,MIC,"Serratia marcescens, KUB No. 5628, AR Bank # 131, SME-3, read-out: MIC",0.5 µg/mL
same,MIC,"Serratia marcescens, KUB No. 5822, AR Bank# 517, KPC-3, read-out: MIC",8 µg/mL
same,MIC,"Serratia marcescens, KUB No. 5825, AR Bank# 520, no carbapenemase genes, read-out: MIC",≤ 0.06 µg/mL
same,MIC,"Serratia marcescens, KUB No. 5826, AR Bank# 521, no carbapenemase genes, read-out: MIC",≤ 0.06 µg/mL
